Activity calls are given as the source filed them. No cut-off for these calls is given here.
Legend:
Human adenovirus 5 [1] = assay: Antiviral activity against Human adenovirus 5 infected in HEK293beta5 cells coexpressing GFP assessed as inhibition of plaque formation at 10 uM incubated for 7 days relative to control; assay type: functional; conditions: Human mastadenovirus C, 168 h
[2] = Selectivity Index, ratio of CC50 for human A549 cells to IC50 for Human adenovirus 5 infected in HEK293beta5 cells coexpressing GFP; assay type: toxicity, cell-based; conditions: read-out: Ratio CC50/IC50
Human adenovirus 5 [3] = assay: Antiviral activity against Human adenovirus 5 infected in A549 cells assessed as fold reduction in virus yield at 50 uM incubated for 48 hrs by endpoint dilution method relative to control; assay type: functional
[4] = Cytotoxicity against human A549 cells assessed as reduction in cell viability incubated for 48 hrs by alamarBlue assay; assay type: cell-based
Human adenovirus 5 [5] = assay: Antiviral activity against Human adenovirus 5 infected in HEK293beta5 cells coexpressing GFP assessed as inhibition of plaque formation incubated for 7 days; assay type: functional, organism-based; conditions: Human mastadenovirus C, 168 h
Human adenovirus 5 [6] = assay: Antiviral activity against Human adenovirus 5 infected in A549 cells assessed as nuclear associated viral DNA copies at 50 uM incubated for 45 mins by qRT-PCR analysis; assay type: functional, organism-based
Human betaherpesvirus 5 = assay: Antiviral activity against Human cytomegalovirus infected in MRC5 cells assessed as decrease in viral DNA copies at 50 uM incubated for 72 hrs by qRT-PCR analysis; assay type: functional, organism-based

| Compound | inhibition at 10 µM (Human adenovirus 5 [1]) [%] | CC50 at 48 h [4] [µM] | also measured |
| --- | --- | --- | --- |
| CC1CN(C(=O)c2cc3ccccc3o2)CC(C)N1C(=O)Nc1cc(C(F)(F)F)ccc1Cl (stereo not given) | 0 | – | – |
| CC(C)(C)OC(=O)N1CCN(C(=O)Nc2ccc([N+](=O)[O-])cc2)C(c2ccccc2)C1 (stereo not given) | – | – | selectivity ratio [2]: 47.3 |
| O=C(Nc1cc(C(F)(F)F)ccc1Cl)N1CCN(C(=O)Nc2cc(C(F)(F)F)ccc2Cl)CC1 | 33.9 | – | – |
| N#Cc1ccc(NC(=O)N2CCN(C(=O)c3cc4ccccc4o3)CC2c2ccccc2)cc1 (stereo not given) | – | – | selectivity ratio [2]: 53.3; fold change (FC) (Human adenovirus 5 [3]): 34.5 |
| CC1CN(C(=O)c2cc3ccccc3o2)CC(C)N1C(=O)Nc1ccccc1[N+](=O)[O-] (stereo not given) | 72.2 | – | – |
| CC1CN(C(=O)OC(C)(C)C)CCN1C(=S)Nc1ccc(C(F)(F)F)cc1 (stereo not given) | 73.4 | – | – |
| O=C(Cc1ccccc1)N1CCN(C(=O)Nc2ccc([N+](=O)[O-])cc2)C(c2ccccc2)C1 (stereo not given) | 82.6 | 174 | – |
| Cc1ccc(NC(=S)N2CCN(C(=O)CC(C)(C)C)CC2C)cc1 (stereo not given) | 76.8 | – | – |
| CC1CN(C(=O)c2cc3ccccc3o2)CCN1C(=S)Nc1ccc(F)cc1 (stereo not given) | 85 | 75.4 | – |
| COc1ccc(NC(=S)N2CCN(C(=O)Cc3ccccc3)CC2C)cc1 (stereo not given) | 88.9 | 175 | – |
| CC1CN(C(=O)c2cc3ccccc3o2)CC(C)N1C(=O)Nc1ccc([N+](=O)[O-])cc1 (stereo not given) | 12.2 | – | – |
| CC1CN(C(=O)c2cc3ccccc3o2)CC(C)N1C(=O)Nc1ccc(C#N)cc1 (stereo not given) | 10 | – | – |
| O=C(c1cc2ccccc2o1)N1CCN(C(=O)Nc2ccc(Cl)cc2)C(c2ccccc2)C1 (stereo not given) | – | – | selectivity ratio [2]: 42.7; fold change (FC) (Human adenovirus 5 [3]): 16.9 |
| CC(C)(C)CC(=O)N1CCN(C(=S)Nc2cc(C(F)(F)F)cc(C(F)(F)F)c2)C(c2ccccc2)C1 (stereo not given) | 100 | 91.8 | – |
| CC1CN(C(=O)c2cc3ccccc3o2)CC(C)N1C(=O)Nc1ccc(Cl)cc1 (stereo not given) | 81.1 | 113 | – |
| O=C(Nc1ccccc1[N+](=O)[O-])N1CCN(C(=O)c2cc3ccccc3o2)CC1 | 41.5 | – | – |
| O=C(c1cc2ccccc2o1)N1CCN(C(=O)c2cc3ccccc3o2)C(c2ccccc2)C1 (stereo not given) | 19.4 | – | – |
| CC1CN(C(=O)c2cc3ccccc3o2)CCN1C(=S)Nc1ccc([N+](=O)[O-])cc1 (stereo not given) | 100 | 20 | – |
| N#Cc1ccc(NC(=S)N2CCN(C(=O)CC3CCCCC3)CC2c2ccccc2)cc1 (stereo not given) | 80 | 65.3 | – |
| CC1CN(C(=O)c2cc3ccccc3o2)CC(C)N1C(=O)Nc1ccc(Cl)c(C(F)(F)F)c1 (stereo not given) | 0 | – | – |
| CC1CN(C(=O)CC(C)(C)C)CCN1C(=S)Nc1ccc([N+](=O)[O-])cc1 (stereo not given) | 76.2 | – | – |
| CC1CN(C(=O)CC(C)(C)C)CCN1C(=S)Nc1ccc(C(F)(F)F)cc1 (stereo not given) | 36.3 | – | – |

| Compound | inhibition at 10 µM (Human adenovirus 5 [1]) [%] | CC50 at 48 h [4] [µM] | also measured |
| --- | --- | --- | --- |
| COc1ccc(NC(=S)N2CCN(C(=O)CC3CCCCC3)CC2C)cc1 (stereo not given) | 25.5 | – | – |
| CC(C)(C)CC(=O)N1CCN(C(=O)Nc2ccc([N+](=O)[O-])cc2)C(c2ccccc2)C1 (stereo not given) | 74.4 | 72 | – |
| CC1CN(C(=O)CC2CCCCC2)CCN1C(=S)Nc1ccc([N+](=O)[O-])cc1 (stereo not given) | 82.6 | 148 | – |
| O=C(c1cc2ccccc2o1)N1CCN(C(=O)Nc2ccc([N+](=O)[O-])cc2)C(c2ccccc2)C1 (stereo not given) | 100 | – | selectivity ratio [2]: 93.5 |
| CC1CN(C(=O)Cc2ccccc2)CCN1C(=S)Nc1ccc(F)cc1 (stereo not given) | 100 | 26.3 | – |
| CC(C)(C)CC(=O)N1CCN(C(=O)Nc2ccccc2[N+](=O)[O-])C(c2ccccc2)C1 (stereo not given) | 100 | 63.3 | – |
| CC1CN(C(=O)OC(C)(C)C)CCN1C(=S)Nc1ccc(Cl)cc1 (stereo not given) | 73.4 | – | – |
| Cc1ccc(NC(=S)N2CCN(C(=O)OC(C)(C)C)CC2C)cc1 (stereo not given) | 49.1 | – | – |
| CC(C)(C)OC(=O)N1CCN(C(=O)Nc2ccccc2[N+](=O)[O-])CC1 | 15 | – | – |
| CC1CN(C(=O)CC2CCCCC2)CCN1C(=S)Nc1ccc(C(F)(F)F)cc1 (stereo not given) | 88.9 | 142 | – |
| CC1CN(C(=O)CC2CCCCC2)CCN1C(=S)Nc1ccc(C#N)cc1 (stereo not given) | 100 | 193 | IC50 (Human adenovirus 5 [5]): 2.5 µM; selectivity ratio [2]: 77.2; fold change (FC) (Human adenovirus 5 [3]): 9.3; Activity (Human adenovirus 5 [6]): Active |
| CC(C)(C)OC(=O)N1CCN(C(=O)Nc2cc(C(F)(F)F)ccc2Cl)CC1 | 95 | 200 | IC50 (Human adenovirus 5 [5]): 2.3 µM; Activity (Human betaherpesvirus 5): Active; selectivity ratio [2]: 87; fold change (FC) (Human adenovirus 5 [3]): 18.7; Activity (Human adenovirus 5 [6]): Active |
| CC1CN(C(=O)c2cc3ccccc3o2)CCN1C(=S)Nc1ccc(C(F)(F)F)cc1 (stereo not given) | 100 | 46.3 | – |
| COc1ccc(NC(=S)N2CCN(C(=O)OC(C)(C)C)CC2C)cc1 (stereo not given) | 36.5 | – | – |
| N#Cc1ccc(NC(=S)N2CCN(C(=O)Cc3ccccc3)CC2c2ccccc2)cc1 (stereo not given) | 64 | – | – |
| CC1CN(C(=O)CC(C)(C)C)CCN1C(=S)Nc1cc(C(F)(F)F)cc(C(F)(F)F)c1 (stereo not given) | 4.81 | – | – |
| O=C(CC1CCCCC1)N1CCN(C(=O)Nc2ccc([N+](=O)[O-])cc2)C(c2ccccc2)C1 (stereo not given) | 98.9 | 71.8 | – |
| CC1CN(C(=O)CC2CCCCC2)CCN1C(=S)Nc1cc(C(F)(F)F)cc(C(F)(F)F)c1 (stereo not given) | 100 | 82.4 | – |
| O=C(c1cc2ccccc2o1)N1CCN(C(=O)Nc2ccccc2[N+](=O)[O-])C(c2ccccc2)C1 (stereo not given) | 100 | – | selectivity ratio [2]: 79; fold change (FC) (Human adenovirus 5 [3]): 9.9 |
| O=C(Nc1ccc([N+](=O)[O-])cc1)N1CCN(C(=O)c2cc3ccccc3o2)CC1 | 0 | – | – |
| CC1CN(C(=O)OC(C)(C)C)CCN1C(=S)Nc1cc(C(F)(F)F)cc(C(F)(F)F)c1 (stereo not given) | 11.1 | – | – |
| CC1CN(C(=O)CC(C)(C)C)CCN1C(=S)Nc1ccc(F)cc1 (stereo not given) | 7.5 | – | – |

| Compound | inhibition at 10 µM (Human adenovirus 5 [1]) [%] | CC50 at 48 h [4] [µM] | also measured |
| --- | --- | --- | --- |
| O=C(c1cc2ccccc2o1)N1CCN(C(=O)c2cc3ccccc3o2)CC1 | 51.5 | – | – |
| CC1CN(C(=O)OC(C)(C)C)CCN1C(=S)Nc1ccc([N+](=O)[O-])cc1 (stereo not given) | 100 | – | – |
| CC(C)(C)OC(=O)N1CCN(C(=S)Nc2ccc(F)cc2)C(c2ccccc2)C1 (stereo not given) | 27.5 | – | – |
| Cc1ccc(NC(=S)N2CCN(C(=O)Cc3ccccc3)CC2C)cc1 (stereo not given) | 92.9 | 200 | – |
| O=C(Nc1cc(C(F)(F)F)ccc1Cl)N1CCN(C(=O)Nc2cc(C(F)(F)F)ccc2Cl)C(c2ccccc2)C1 (stereo not given) | 90.4 | 200 | – |
| O=C(c1cc2ccccc2o1)N1CCN(C(=O)Nc2cc(C(F)(F)F)ccc2Cl)C(c2ccccc2)C1 (stereo not given) | – | – | selectivity ratio [2]: 116 |
| Cc1ccc(NC(=O)N2C(C)CN(C(=O)c3cc4ccccc4o3)CC2C)cc1 (stereo not given) | 0 | – | – |
| CC1CN(C(=O)CC(C)(C)C)CCN1C(=S)Nc1ccc(C#N)cc1 (stereo not given) | 51 | – | – |
| CC1CN(C(=O)c2cc3ccccc3o2)CCN1C(=S)Nc1ccc(C#N)cc1 (stereo not given) | 100 | 25.5 | – |
| CC1CN(C(=O)CC2CCCCC2)CCN1C(=S)Nc1ccc(Cl)cc1 (stereo not given) | 89.3 | 200 | – |
| CC1CN(C(=O)CC(C)(C)C)CCN1C(=S)Nc1ccc(Cl)cc1 (stereo not given) | 61.6 | – | – |
| O=C(Cc1ccccc1)N1CCN(C(=S)Nc2ccc([N+](=O)[O-])cc2)C(c2ccccc2)C1 (stereo not given) | 5.5 | – | – |
| CC1CN(C(=O)Cc2ccccc2)CCN1C(=S)Nc1ccc(Cl)cc1 (stereo not given) | 84.6 | 175 | – |
| O=C(CC1CCCCC1)N1CCN(C(=S)Nc2ccc(F)cc2)C(c2ccccc2)C1 (stereo not given) | 5 | – | – |
| O=C(Cc1ccccc1)N1CCN(C(=O)Nc2cc(C(F)(F)F)ccc2Cl)C(c2ccccc2)C1 (stereo not given) | 100 | 64.5 | – |
| CC1CN(C(=O)Cc2ccccc2)CCN1C(=S)Nc1ccc(C(F)(F)F)cc1 (stereo not given) | 73.4 | – | – |
| CC1CN(C(=O)OC(C)(C)C)CCN1C(=S)Nc1ccc(C#N)cc1 (stereo not given) | 88.9 | 175 | – |
| Cc1ccc(NC(=S)N2CCN(C(=O)CC3CCCCC3)CC2c2ccccc2)cc1 (stereo not given) | 15 | – | – |
| COc1ccc(NC(=S)N2CCN(C(=O)CC(C)(C)C)CC2C)cc1 (stereo not given) | 58.1 | – | – |
| Nc1ccn(C[C@@H](CO)OCP(=O)(O)O)c(=O)n1.O.O [CIDOFOVIR] | 3.51 | 50.6 | IC50 (Human adenovirus 5 [5]): 24.1 µM; fold change (FC) (Human adenovirus 5 [3]): 82.5 |

Source: ChEMBL document CHEMBL4312024, “Optimization of piperazine-derived ureas privileged structures for effective antiadenovirus agents” (Eur J Med Chem, 2020)
